# According to patent US12637467B2, “Inhibitor of BTK and mutants thereof” (Newave Pharmaceutical Inc., priority 2019, dated 2026):
# “Also recorded” adds a separate entry of the source.
# Target: WT BTK (Homo sapiens, UniProt Q06187)
# Test: In vitro dialysis assay (irreversibility assay), WT BTK
# Assay type: biochemical
# Conditions: for Conclusion (WT BTK): reversible or irreversible inhibition after 24 hr dialysis; for Recovery after 24 h dialysis: 0.003 mM compound pre-incubated with 2 nM BTK for 2 hr, dialyzed 24 hr against buffer with 40 mM ATP, BTK activity vs non-dialyzed samples
# Procedure: The compound-enzyme complex was dialyzed against the same buffer supplemented with 40 mM ATP for 24 hr. Cumulative dialysis factor >160,000×. After dialysis, the BTK activity was measured in the presence 40 mM ATP and 1 mM substrate peptide and compared to that in non-dialyzed samples. Assay buffer: 100 mM HEPES, pH7.5; 0.1% BSA, 0.01% Triton-X 100; 5 mM MgCl2; 1 mM DTT.
# WT BTK, sequence (Q06187 whole entry): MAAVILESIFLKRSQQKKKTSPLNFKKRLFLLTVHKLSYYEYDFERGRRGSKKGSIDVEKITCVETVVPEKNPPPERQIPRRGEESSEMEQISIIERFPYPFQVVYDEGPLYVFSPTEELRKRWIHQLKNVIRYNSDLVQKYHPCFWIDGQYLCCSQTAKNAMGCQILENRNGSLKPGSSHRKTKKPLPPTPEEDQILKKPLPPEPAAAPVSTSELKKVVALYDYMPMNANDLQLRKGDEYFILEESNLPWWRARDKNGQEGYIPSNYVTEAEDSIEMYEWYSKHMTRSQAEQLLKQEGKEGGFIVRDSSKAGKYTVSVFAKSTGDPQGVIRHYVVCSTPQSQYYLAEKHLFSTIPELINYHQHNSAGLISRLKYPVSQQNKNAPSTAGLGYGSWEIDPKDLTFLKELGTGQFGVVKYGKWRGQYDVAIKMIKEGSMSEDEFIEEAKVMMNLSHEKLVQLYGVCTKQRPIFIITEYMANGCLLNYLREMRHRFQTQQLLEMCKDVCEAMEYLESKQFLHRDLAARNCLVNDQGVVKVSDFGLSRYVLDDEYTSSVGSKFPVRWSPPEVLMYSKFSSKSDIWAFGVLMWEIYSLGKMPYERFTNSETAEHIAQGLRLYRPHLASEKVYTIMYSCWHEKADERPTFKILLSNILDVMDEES
compound,measurement,value
"C=CC(=O)Nc1cc(Nc2nc(-c3ccnc(N4CCn5c(cc6c5CC(C)(C)C6)C4=O)c3CO)cn(C)c2=O)ccc1N1CCN(C2COC2)C[C@@H]1C [Example 3, (S)—N-(5-((6-(2-(7,7-dimethyl-1-oxo-1,3,4,6,7,8-hexahydro-2H-cyclopenta[4,5]pyrrolo[1,2-a]pyrazin-2-yl)-3-(hydroxymethyl)pyridin-4-yl)-4-methyl-3-oxo-3,4-dihydropyrazin-2-yl)amino)-2-(2-methyl-4-(oxetan-3-yl)piperazin-1-yl)phenyl)acrylamide]",Conclusion (WT BTK),irreversible inhibitors; also recorded: Irreversible/covalent inhibition
"C=CC(=O)Nc1cc(Nc2nc(-c3ccnc(N4CCn5c(cc6c5CC(C)(C)C6)C4=O)c3C)cn(C)c2=O)ccc1N1CCN(C2COC2)C[C@@H]1C [Example 11, (S)—N-(5-((6-(2-(7,7-dimethyl-1-oxo-1,3,4,6,7,8-hexahydro-2H-cyclopenta[4,5]pyrrolo[1,2-a]pyrazin-2-yl)-3-methylpyridin-4-yl)-4-methyl-3-oxo-3,4-dihydropyrazin-2-yl)amino)-2-(2-methyl-4-(oxetan-3-yl)piperazin-1-yl)phenyl)acrylamide]",Conclusion (WT BTK),irreversible inhibitors; also recorded: Irreversible/covalent inhibition
"C=CC(=O)Nc1cc(Nc2nc(-c3ccnc(N4CCn5c(cc6c5CC(C)(C)C6)C4=O)c3CO)cn(C)c2=O)ccc1N1CCC(N2CCOCC2)CC1C (centres unmarked) [Example 12, N-(5-((6-(2-(7,7-dimethyl-1-oxo-1,3,4,6,7,8-hexahydro-2H-cyclopenta[4,5]pyrrolo[1,2-a]pyrazin-2-yl)-3-(hydroxymethyl)pyridin-4-yl)-4-methyl-3-oxo-3,4-dihydropyrazin-2-yl)amino)-2-(2-methyl-4-morpholinopiperidin-1-yl)phenyl)acrylamide]",Conclusion (WT BTK),irreversible inhibitors; also recorded: Irreversible/covalent inhibition
"C=CC(=O)Nc1cc(Nc2nc(-c3ccnc(N4CCn5c(cc6c5CC(C)(C)C6)C4=O)c3C)cn(C)c2=O)ccc1N1CCC(N2CCOCC2)CC1C [Example 17, N-(5-[[6-(2-[4,4-dimethyl-9-oxo-1,10-diazatricyclo[6.4.0.0^[2,6]]dodeca-2(6),7-dien-10-yl]-3-methylpyridin-4-yl)-4-methyl-3-oxopyrazin-2-yl]amino]-2-[(2S)-2-methyl-4-(morpholin-4-yl)piperidin-1-yl]phenyl)prop-2-enamide]",Conclusion (WT BTK),Irreversible/covalent inhibition
"C=CC(=O)Nc1cc(Nc2nc(-c3ccnc(N4CCn5c(cc6c5CC(C)(C)C6)C4=O)c3C)cn(C)c2=O)ccc1N1CCC(N2CCOCC2)CC1.Cl [Example 18, N-(5-[[6-(2-[4,4-dimethyl-9-oxo-1,10-diazatricyclo[6.4.0.0^[2,6]]dodeca-2(6),7-dien-10-yl]-3-methylpyridin-4-yl)-4-methyl-3-oxopyrazin-2-yl]amino]-2-[4-(morpholin-4-yl)piperidin-1-yl]phenyl)prop-2-enamide hydrochloride]",Recovery after 24 h dialysis,~1%
same,Conclusion (WT BTK),Irreversible/covalent inhibition
"C=CC(=O)Nc1cc(Nc2nc(-c3ccnc(N4CCn5c(cc6c5CC(C)(C)C6)C4=O)c3CO)cn(C)c2=O)ccc1N1CCC(N2CCC(F)(F)CC2)CC1 [Example 20, N-(2-[4,4-difluoro-[1,4′-bipiperidin]-1′-yl]-5-[[6-(2-[4,4-dimethyl-9-oxo-1,10-diazatricyclo[6.4.0.0^[2,6]]dodeca-2(6),7-dien-10-yl]-3-(hydroxymethyl)pyridin-4-yl)-4-methyl-3-oxopyrazin-2-yl]amino]phenyl)prop-2-enamide]",Recovery after 24 h dialysis,~1%
same,Conclusion (WT BTK),Irreversible/covalent inhibition
"C=CC(=O)Nc1cc(Nc2nc(-c3ccnc(N4CCn5c(cc6c5CC(C)(C)C6)C4=O)c3CO)cn(C)c2=O)ccc1N1CCC(N2CCN(C)CC2)CC1 [Example 21, N-(5-[[6-(2-[4,4-dimethyl-9-oxo-1,10-diazatricyclo[6.4.0.0^[2,6]]dodeca-2(6),7-dien-10-yl]-3-(hydroxymethyl)pyridin-4-yl)-4-methyl-3-oxopyrazin-2-yl]amino]-2-[4-(4-methylpiperazin-1-yl)piperidin-1-yl]phenyl)prop-2-enamide]",Recovery after 24 h dialysis,~1%
same,Conclusion (WT BTK),Irreversible/covalent inhibition
"C=CC(=O)Nc1cc(Nc2nc(-c3ccnc(N4CCn5c(cc6c5CC(C)(C)C6)C4=O)c3CO)cn(C)c2=O)ccc1N1CCN(C2CCC(F)(F)CC2)C[C@@H]1C [Example 23, N-[2-[(2S)-4-(4,4-difluorocyclohexyl)-2-methylpiperazin-1-yl]-5-[[6-(2-[4,4-dimethyl-9-oxo-1,10-diazatricyclo[6.4.0.0^[2,6]]dodeca-2(6),7-dien-10-yl]-3-(hydroxymethyl)pyridin-4-yl)-4-methyl-3-oxopyrazin-2-yl]amino]phenyl]prop-2-enamide]",Recovery after 24 h dialysis,~1%
same,Conclusion (WT BTK),Irreversible/covalent inhibition
"C=CC(=O)Nc1cc(Nc2nc(-c3ccnc(N4CCCn5c(cc6c5CC(C)(C)C6)C4=O)c3CO)cn(C)c2=O)ccc1N1CCN(C2COC2)C[C@@H]1C [Example 29, N-(5-[[6-(2-[4,4-dimethyl-9-oxo-1,10-diazatricyclo[6.5.0.0^[2,6]]trideca-2(6),7-dien-10-yl]-3-(hydroxymethyl)pyridin-4-yl)-4-methyl-3-oxopyrazin-2-yl]amino]-2-[(2S)-2-methyl-4-(oxetan-3-yl)piperazin-1-yl]phenyl)prop-2-enamide]",Recovery after 24 h dialysis,~1%
same,Conclusion (WT BTK),Irreversible/covalent inhibition
"C=CC(=O)Nc1cc(Nc2nc(-c3ccnc(N4CCc5c(sc6c5CCC6(C)C)C4=O)c3CO)cn(C)c2=O)ccc1N1CCN(C2COC2)C[C@@H]1C [Example 35, N-(5-[[6-(2-[5,5-dimethyl-9-oxo-7-thia-10-azatricyclo[6.4.0.0^[2,6]]dodeca-1(8),2(6)-dien-10-yl]-3-(hydroxymethyl)pyridin-4-yl)-4-methyl-3-oxopyrazin-2-yl]amino]-2-[(2S)-2-methyl-4-(oxetan-3-yl)piperazin-1-yl]phenyl)prop-2-enamide]",Recovery after 24 h dialysis,~1%
same,Conclusion (WT BTK),Irreversible/covalent inhibition
"C=CC(=O)Nc1cc(Nc2nc(-c3ccnc(N4CCc5c(sc6c5CCCC6)C4=O)c3CO)cn(C)c2=O)ccc1N1CCN(C2COC2)C[C@@H]1C [Example 36, N-[5-([6-[3-(hydroxymethyl)-2-[6-oxo-8-thia-5-azatricyclo[7.4.0.0 ^[2,7]]trideca-1(9),2(7)-dien-5-yl]pyridin-4-yl]-4-methyl-3-oxopyrazin-2-yl]amino)-2-[(2S)-2-methyl-4-(oxetan-3-yl)piperazin-1-yl]phenyl]prop-2-enamide]",Recovery after 24 h dialysis,~1%
same,Conclusion (WT BTK),Irreversible/covalent inhibition
"C=CC(=O)Nc1cc(Nc2nc(-c3ccnc(N4CCCn5c(cc6c5CC(C)(C)C6)C4=O)c3CO)cn(C)c2=O)ccc1N1CCN([C@H]2C[C@@H](C)O[C@@H](C)C2)C[C@@H]1C [Example 38, N-(5-[[6-(2-[4,4-dimethyl-9-oxo-1,10-diazatricyclo[6.5.0.0^[2,6]]trideca-2(6),7-dien-10-yl]-3-(hydroxymethyl)pyridin-4-yl)-4-methyl-3-oxopyrazin-2-yl]amino]-2-[(2S)-2-methyl-4-[(2R,4r,6S)-2,6-dimethyloxan-4-yl]piperazin-1-yl]phenyl)prop-2-enamide]",Recovery after 24 h dialysis,~1%
same,Conclusion (WT BTK),Irreversible/covalent inhibition
"C=CC(=O)Nc1cc(Nc2nc(-c3ccnc(N4CCn5c(cc6c5CC(C)(C)C6)C4=O)c3CO)cn(C)c2=O)ccc1N1CCN(C2CCOC2)C[C@@H]1C (stereo partly drawn) [Example 39, N-(5-[[6-(2-[4,4-dimethyl-9-oxo-1,10-diazatricyclo[6.4.0.0^[2,6]]dodeca-2(6),7-dien-10-yl]-3-(hydroxymethyl)pyridin-4-yl)-4-methyl-3-oxopyrazin-2-yl]amino]-2-[(2S)-2-methyl-4-(oxolan-3-yl)piperazin-1-yl]phenyl)prop-2-enamide]",Recovery after 24 h dialysis,~1%
same,Conclusion (WT BTK),Irreversible/covalent inhibition
"C=CC(=O)Nc1cc(Nc2nc(-c3ccnc(N4CCn5c(cc6c5CC(C)(C)C6)C4=O)c3C)cn(C)c2=O)ccc1N1CCN(C2CCOCC2)C[C@@H]1C [Example 40, N-(5-[[6-(2-[4,4-dimethyl-9-oxo-1,10-diazatricyclo[6.4.0.0^[2,6]]dodeca-2(6),7-dien-10-yl]-3-methylpyridin-4-yl)-4-methyl-3-oxopyrazin-2-yl]amino]-2-[(2S)-2-methyl-4-(oxan-4-yl)piperazin-1-yl]phenyl)prop-2-enamide]",Recovery after 24 h dialysis,~1%
same,Conclusion (WT BTK),Irreversible/covalent inhibition
C=CC(=O)Nc1cc(Nc2nc(-c3ccnc(N4CCn5c(cc6c5CC(C)(C)C6)C4=O)c3CO)cn(C)c2=O)ccc1C1C(=O)N(C)CCN1C1COC1 (centres unmarked) [Example 41],Recovery after 24 h dialysis,~1%
same,Conclusion (WT BTK),Irreversible/covalent inhibition
"C=CC(=O)Nc1cc(Nc2nc(-c3ccnc(N4CCn5c(cc6c5CC(C)(C)C6)C4=O)c3CO)cn(C)c2=O)ccc1C1CN(C2COC2)CC(=O)N1C (centres unmarked) [Example 42, N-(5-[[6-(2-[4,4-dimethyl-9-oxo-1,10-diazatricyclo[6.4.0.0^[2,6]]dodeca-2(6),7-dien-10-yl]-3-(hydroxymethyl)pyri-din-4-yl)-4-methyl-3-oxopyrazin-2-yl]amino]-2-[1-methyl-4-(oxetan-3-yl)-6-oxopiperazin-2-yl]phenyl)prop-2-enamide]",Recovery after 24 h dialysis,~1%
same,Conclusion (WT BTK),Irreversible/covalent inhibition
C=CC(=O)Nc1cc(Nc2nc(-c3ccnc(N4CCn5c(cc6c5CC(C)(C)C6)C4=O)c3CO)cn(C)c2=O)ccc1C1CN(C)C(=O)CN1C1COC1 (centres unmarked) [Example 43],Conclusion (WT BTK),Irreversible/covalent inhibition
